# In ChEMBL document CHEMBL6120978, “Anticancer activity of salinomycin quaternary phosphonium salts” (Eur J Med Chem, 2025):
# Calls of active or inactive are those of the source. No cut-off for these calls is given here.
# Columns and labels:
# [1] = system: Mitochondrial membrane; assay: Induction of mitochondrial membrane potential loss in human MDA-MB-231 cells assessed as green fluorescence at IC50 incubated for 48 hrs MitoTracker Green FM staining based flow cytometry analysis (reference value: 8.86 %); assay type: cell membranes
# [2] = system: Mitochondrial membrane; assay: Induction of mitochondrial membrane potential loss in human MDA-MB-231 cells assessed as red fluorescence at IC50 incubated for 48 hrs MitoTrackerRed CMXRos staining based flow cytometry analysis (reference value: 91.1 %); assay type: cell membranes
# [3] = system: Mitochondrial membrane; assay: Induction of mitochondrial membrane potential loss in human A549 cells assessed as red fluorescence at IC50 incubated for 48 hrs MitoTrackerRed CMXRos staining based flow cytometry analysis (reference value: 91.1 %); assay type: cell membranes
# [4] = system: Mitochondrial membrane; assay: Induction of mitochondrial membrane potential loss in human A549 cells assessed as green fluorescence at IC50 incubated for 48 hrs MitoTracker Green FM staining based flow cytometry analysis (reference value: 8.93 %); assay type: cell membranes
# [5] = Selectivity index, ratio of IC50 for cytotoxicity against human HaCaT cells to IC50 for cytotoxicity against human SW620 cells; assay type: toxicity, cell-based; details: HaCaT cells versus SW620 cells, read-out: Ratio IC50
# [6] = system: SW480; assay: Cytotoxicity against human SW480 cells incubated for 72 hrs by MTT assay; assay type: functional, cell-based; details: SW480, 72 h
# [7] = system: Staphylococcus aureus; assay: Antimicrobial activity against Staphylococcus aureus ATCC 25923 incubated for 18 hrs by twofold microdilution method; assay type: functional
# [8] = Cytotoxicity against chinese hamster V79 cells incubated for 72 hrs by MTT assay; assay type: toxicity, cell-based, Cricetulus griseus
# [9] = system: A549; assay: Induction of mitochondrial respiration in human A549 cells assessed as decrease in oxygen consumption rate at 3 uM by Oxygraph-2K system; assay type: functional, cell-based
# [10] = system: PC-3; assay: Cytotoxicity against human PC-3 cells incubated for 72 hrs by MTT assay; assay type: functional, cell-based; details: PC-3, 72 h
# [11] = system: MDA-MB-231; assay: Cytotoxicity against human MDA-MB-231 cells incubated for 72 hrs by MTT assay; assay type: functional, cell-based; details: MDA-MB-231, 72 h
# [12] = Selectivity index, ratio of IC50 for cytotoxicity against human HaCaT cells to IC50 for cytotoxicity against human PC-3 cells; assay type: toxicity, cell-based; details: HaCaT cells versus PC-3 cells, read-out: Ratio IC50
# [13] = Cytotoxicity against human HaCaT cells incubated for 72 hrs by MTT assay; assay type: toxicity, cell-based
# [14] = Selectivity index, ratio of IC50 for cytotoxicity against chinese hamster V79 cells to IC50 for cytotoxicity against human SW480 cells; assay type: toxicity, cell-based; details: V79 cells versus SW480 cells, read-out: Ratio IC50
# [15] = Selectivity index, ratio of IC50 for cytotoxicity against chinese hamster V79 cells to IC50 for cytotoxicity against human PC-3 cells; assay type: toxicity, cell-based; details: V79 cells versus PC-3 cells, read-out: Ratio IC50
# [16] = system: Pseudomonas aeruginosa; assay: Antimicrobial activity against Pseudomonas aeruginosa ATCC 15442 incubated for 18 hrs by twofold microdilution method; assay type: functional
# [17] = Selectivity index, ratio of IC50 for cytotoxicity against human HaCaT cells to IC50 for cytotoxicity against human SW480 cells; assay type: toxicity, cell-based; details: HaCaT cells versus SW480 cells, read-out: Ratio IC50
# [18] = system: Staphylococcus epidermidis; assay: Antimicrobial activity against Staphylococcus epidermidis ATCC 35984 incubated for 18 hrs by twofold microdilution method; assay type: functional
# [19] = Selectivity index, ratio of IC50 for cytotoxicity against chinese hamster V79 cells to IC50 for cytotoxicity against human A549 cells; assay type: toxicity, cell-based; details: V79 cells versus A549 cells, read-out: Ratio IC50
# [20] = system: A549; assay: Cytotoxicity against human A549 cells incubated for 72 hrs by MTT assay; assay type: functional, cell-based; details: A549, 72 h
# [21] = system: Escherichia coli; assay: Antimicrobial activity against Escherichia coli ATCC 25922 incubated for 18 hrs by twofold microdilution method; assay type: functional
# [22] = system: Lipid bilayer; assay: Induction of ionic transport in azolectin bilayer membrane assessed as irregular disturbance in membrane permeability in presence of HEPES buffer by electrophysiology technique
# [23] = system: Staphylococcus aureus; assay: Antimicrobial activity against Staphylococcus aureus NCTC 4163 incubated for 18 hrs by twofold microdilution method; assay type: functional
# [24] = Selectivity index, ratio of IC50 for cytotoxicity against chinese hamster V79 cells to IC50 for cytotoxicity against human SW620 cells; assay type: toxicity, cell-based; details: V79 cells versus SW620 cells, read-out: Ratio IC50
# [25] = Selectivity index, ratio of IC50 for cytotoxicity against chinese hamster V79 cells to IC50 for cytotoxicity against human MDA-MB-231 cells; assay type: toxicity, cell-based; details: V79 cells versus MDA-MB-231 cells, read-out: Ratio IC50
# [26] = system: Staphylococcus aureus; assay: Antimicrobial activity against Staphylococcus aureus ATCC 29213 incubated for 18 hrs by twofold microdilution method; assay type: functional
# [27] = system: SW-620; assay: Cytotoxicity against human SW620 cells incubated for 72 hrs by MTT assay; assay type: functional, cell-based; details: SW-620, 72 h
# [28] = system: Staphylococcus epidermidis; assay: Antimicrobial activity against Staphylococcus epidermidis ATCC 12228 incubated for 18 hrs by twofold microdilution method; assay type: functional
# [29] = system: A549; assay: Induction of mitochondrial respiration in human A549 cells assessed as fold increase in oxygen consumption rate at 1 uM by Oxygraph-2K system; assay type: functional
# [30] = system: Lipid bilayer; assay: Induction of current generation in azolectin bilayer membrane in presence of HEPES buffer by electrophysiology technique
# [31] = Selectivity index, ratio of IC50 for cytotoxicity against human HaCaT cells to IC50 for cytotoxicity against human A549 cells; assay type: toxicity, cell-based; details: HaCaT cells versus A549 cells, read-out: Ratio IC50
# [32] = system: Staphylococcus aureus; assay: Antimicrobial activity against Staphylococcus aureus ATCC 6538 incubated for 18 hrs by twofold microdilution method; assay type: functional
# [33] = system: Lipid bilayer; assay: Induction of ionic transport in azolectin bilayer membrane assessed as membrane rupture in presence of HEPES buffer by electrophysiology technique
# [34] = system: Lipid bilayer; assay: Induction of ionic transport in azolectin bilayer membrane assessed as specific channel-like structure formation in presence of HEPES buffer by electrophysiology technique
# [35] = Selectivity index, ratio of IC50 for cytotoxicity against human HaCaT cells to IC50 for cytotoxicity against human MDA-MB-231 cells; assay type: toxicity, cell-based; details: HaCaT cells versus MDA-MB-231 cells, read-out: Ratio IC50
compound,measurement,setting,value
N#CC(C#N)=NNc1cccc(Cl)c1,Activity,[1],87.8%
same,Activity,[2],12.3%
same,Activity,[3],20.2%
same,Activity,[4],79.6%
CC[C@@H](C(=O)[C@@H](C)[C@@H](O)[C@H](C)[C@@H]1O[C@@H]([C@@H](CC)C(=O)OCCCC[P+](c2ccccc2)(c2ccccc2)c2ccc(N(C)C)cc2)CC[C@@H]1C)[C@H]1O[C@]2(C=C[C@@H](O)[C@]3(CC[C@@](C)([C@H]4CC[C@](O)(CC)[C@H](C)O4)O3)O2)[C@H](C)C[C@@H]1C.[Br-],selectivity ratio,[5],11.6
same,IC50,[6],570 nM
same,MIC,[7],4 µg/mL
same,IC50 at 72 h,[8],370 nM
same,Activity,[9],inactive
same,IC50,[10],2520 nM
same,IC50,[11],780 nM
same,selectivity ratio,[12],0.5
same,IC50 at 72 h,[13],1280 nM
same,selectivity ratio,[14],0.6
same,selectivity ratio,[15],0.1
same,MIC,[16],> 256 µg/mL
same,selectivity ratio,[17],2.2
same,MIC,[18],4 µg/mL
same,selectivity ratio,[19],0.5
same,IC50,[20],750 nM
same,MIC,[21],> 256 µg/mL
same,Activity,[22],inactive
same,MIC,[23],2 µg/mL
same,selectivity ratio,[24],3.4
same,selectivity ratio,[25],0.5
same,MIC,[26],2 µg/mL
same,IC50,[27],110 nM
same,MIC,[28],4 µg/mL
same,fold change (FC),[29],2.5
same,Activity,[30],Dose-dependent-effect
same,selectivity ratio,[31],1.7
same,MIC,[32],2 µg/mL
same,Activity,[33],inactive
same,Activity,[34],inactive
same,selectivity ratio,[35],1.6
